Experimental data from patent US8828972B2, “Formulations containing alkylphosphocholines using novel negative charge carriers” (Max-Planck-Gesellschaft zur Foerderung der Wissenschaften …, priority 2004, dated 2014).

Assays:
[1] = system: Cushing's and bladder tumours; assay: Treatment of cancer in dogs; type: in vivo
Tumour cells = assay: Sensitisation of tumour cells to radiation therapy; type: cell-based; conditions: tumour cells doped with the substance

## CCCCCCCCC=CCCCCCCCCCCCCOP(=O)([O-])OCCC[N+](C)(C)C [erucylphospho-(N,N,N-trimethyl)-propylammonium]
[1]
  treatment of Cushing's and bladder tumours: treated successfully

## CCCCCCCCC=CCCCCCCCCCCCCOP(=O)([O-])OCCC[N+](C)(C)C [erufosin]
Tumour cells
  sensitisation to radiation therapy: sensitised to radiation therapy
